Assay results taken from ChEMBL document CHEMBL4325881, “Facile synthesis of 2-aryl 5-hydroxy benzo[d]oxazoles and their in vitro anti-proliferative effects on various cancer cell lines” (Bioorg Med Chem Lett, 2018).

Legend:
A549 = test: Cytotoxicity against human A549 cells assessed as reduction in cell viability after 48 hrs by MTT assay; format: functional, cell-based; conditions: A549, 48 h
[1] = Cytotoxicity against human […] cells assessed as reduction in cell viability after 48 hrs by MTT assay; format: functional, cell-based
MDA-MB-231 = test: Cytotoxicity against human MDA-MB-231 cells assessed as reduction in cell viability after 48 hrs by MTT assay; format: functional, cell-based; conditions: MDA-MB-231, 48 h
HeLa = test: Cytotoxicity against human HeLa cells assessed as reduction in cell viability after 48 hrs by MTT assay; format: functional, cell-based
HepG2 = test: Cytotoxicity against human HepG2 cells assessed as reduction in cell viability after 48 hrs by MTT assay; format: functional, cell-based; conditions: HepG2, 48 h
HaCaT = test: Cytotoxicity against human HaCaT cells assessed as reduction in cell viability after 48 hrs by MTT assay; format: cell-based

Row | SMILES | IC50 (A549) | IC50 [1] | IC50 (MDA-MB-231) | IC50 (HeLa) | IC50 (HepG2) | IC50 (HaCaT)
1 | COc1ccccc1-c1nc2c(C=O)c(O)ccc2o1 | 2.8 µM | 10.4 µM | 5.95 µM | 8.08 µM | 10.8 µM | 8.38 µM
2 | O=Cc1c(O)ccc2oc(-c3ccccc3[N+](=O)[O-])nc12 | 7.03 µM | 18.4 µM | 9.18 µM | 14.5 µM | 17.4 µM | 20 µM
3 | O=Cc1c(O)ccc2oc(-c3ccco3)nc12 | > 30 µM | > 30 µM | > 30 µM | > 30 µM | > 30 µM | > 30 µM
4 | COc1cc(OC)cc(-c2nc3c(C=O)c(O)ccc3o2)c1 | 30.3 µM | 30.5 µM | 34.1 µM | 25.3 µM | 21.4 µM | 17.6 µM
5 | O=Cc1c(O)ccc2oc(-c3cccc4ccccc34)nc12 | 28.4 µM | 21.2 µM | 31.2 µM | 30.1 µM | 27.7 µM | 10.7 µM
